Data from publication PMC3813431 (Aquatic toxicology (Amsterdam, Netherlands), 2013).
Entries after “also recorded” stand apart in the source; their conditions may differ. Read-outs that look alike come from different tables or passages of the source. Marks after values point to notes of the source that are not given here.

Tests used:
[1] = target: ryanodine receptor, isoform 1 (RyR1) (Oncorhynchus mykiss, UniProt A0A8C7UX14); type: binding, rainbow trout (Oncorhynchus mykiss); details: for Comparison (Ratio): Fish RPF compared to Mammal RPF; for Log-Probit Slope / Bmax / Bmax (pmol/mg): Mean ± SEM; for Bmax / Bmax (pmol/mg): maximal level of [3H]Ry binding at saturation; for Fish RPF: relative potency factor, Q20 relative to PCB 95; for activity toward RyR1: rainbow trout preparation
[2] = test system: RyR1; experiment: Mammalian RyR1 [3H]ryanodine binding; parameters: species or system rabbit; details: relative potency factor, EC2X relative to PCB 95; from literature EC2X values
[3] = test system: RyR1; details: estimated from QSAR; ref Rayne and Forest 2010; cited from earlier work
[4] = test system: RyR1; details: ref Pessah et al. 2006; cited from earlier work
[5] = linear regression of log-probit plot, (−) inactive
[6] = sigmoidal fit of enhanced [3H]Ry binding, PCB 0–20 μM, (−) inactive

Chain of ryanodine receptor, isoform 1 (RyR1) (A0A8C7UX14 1-5031): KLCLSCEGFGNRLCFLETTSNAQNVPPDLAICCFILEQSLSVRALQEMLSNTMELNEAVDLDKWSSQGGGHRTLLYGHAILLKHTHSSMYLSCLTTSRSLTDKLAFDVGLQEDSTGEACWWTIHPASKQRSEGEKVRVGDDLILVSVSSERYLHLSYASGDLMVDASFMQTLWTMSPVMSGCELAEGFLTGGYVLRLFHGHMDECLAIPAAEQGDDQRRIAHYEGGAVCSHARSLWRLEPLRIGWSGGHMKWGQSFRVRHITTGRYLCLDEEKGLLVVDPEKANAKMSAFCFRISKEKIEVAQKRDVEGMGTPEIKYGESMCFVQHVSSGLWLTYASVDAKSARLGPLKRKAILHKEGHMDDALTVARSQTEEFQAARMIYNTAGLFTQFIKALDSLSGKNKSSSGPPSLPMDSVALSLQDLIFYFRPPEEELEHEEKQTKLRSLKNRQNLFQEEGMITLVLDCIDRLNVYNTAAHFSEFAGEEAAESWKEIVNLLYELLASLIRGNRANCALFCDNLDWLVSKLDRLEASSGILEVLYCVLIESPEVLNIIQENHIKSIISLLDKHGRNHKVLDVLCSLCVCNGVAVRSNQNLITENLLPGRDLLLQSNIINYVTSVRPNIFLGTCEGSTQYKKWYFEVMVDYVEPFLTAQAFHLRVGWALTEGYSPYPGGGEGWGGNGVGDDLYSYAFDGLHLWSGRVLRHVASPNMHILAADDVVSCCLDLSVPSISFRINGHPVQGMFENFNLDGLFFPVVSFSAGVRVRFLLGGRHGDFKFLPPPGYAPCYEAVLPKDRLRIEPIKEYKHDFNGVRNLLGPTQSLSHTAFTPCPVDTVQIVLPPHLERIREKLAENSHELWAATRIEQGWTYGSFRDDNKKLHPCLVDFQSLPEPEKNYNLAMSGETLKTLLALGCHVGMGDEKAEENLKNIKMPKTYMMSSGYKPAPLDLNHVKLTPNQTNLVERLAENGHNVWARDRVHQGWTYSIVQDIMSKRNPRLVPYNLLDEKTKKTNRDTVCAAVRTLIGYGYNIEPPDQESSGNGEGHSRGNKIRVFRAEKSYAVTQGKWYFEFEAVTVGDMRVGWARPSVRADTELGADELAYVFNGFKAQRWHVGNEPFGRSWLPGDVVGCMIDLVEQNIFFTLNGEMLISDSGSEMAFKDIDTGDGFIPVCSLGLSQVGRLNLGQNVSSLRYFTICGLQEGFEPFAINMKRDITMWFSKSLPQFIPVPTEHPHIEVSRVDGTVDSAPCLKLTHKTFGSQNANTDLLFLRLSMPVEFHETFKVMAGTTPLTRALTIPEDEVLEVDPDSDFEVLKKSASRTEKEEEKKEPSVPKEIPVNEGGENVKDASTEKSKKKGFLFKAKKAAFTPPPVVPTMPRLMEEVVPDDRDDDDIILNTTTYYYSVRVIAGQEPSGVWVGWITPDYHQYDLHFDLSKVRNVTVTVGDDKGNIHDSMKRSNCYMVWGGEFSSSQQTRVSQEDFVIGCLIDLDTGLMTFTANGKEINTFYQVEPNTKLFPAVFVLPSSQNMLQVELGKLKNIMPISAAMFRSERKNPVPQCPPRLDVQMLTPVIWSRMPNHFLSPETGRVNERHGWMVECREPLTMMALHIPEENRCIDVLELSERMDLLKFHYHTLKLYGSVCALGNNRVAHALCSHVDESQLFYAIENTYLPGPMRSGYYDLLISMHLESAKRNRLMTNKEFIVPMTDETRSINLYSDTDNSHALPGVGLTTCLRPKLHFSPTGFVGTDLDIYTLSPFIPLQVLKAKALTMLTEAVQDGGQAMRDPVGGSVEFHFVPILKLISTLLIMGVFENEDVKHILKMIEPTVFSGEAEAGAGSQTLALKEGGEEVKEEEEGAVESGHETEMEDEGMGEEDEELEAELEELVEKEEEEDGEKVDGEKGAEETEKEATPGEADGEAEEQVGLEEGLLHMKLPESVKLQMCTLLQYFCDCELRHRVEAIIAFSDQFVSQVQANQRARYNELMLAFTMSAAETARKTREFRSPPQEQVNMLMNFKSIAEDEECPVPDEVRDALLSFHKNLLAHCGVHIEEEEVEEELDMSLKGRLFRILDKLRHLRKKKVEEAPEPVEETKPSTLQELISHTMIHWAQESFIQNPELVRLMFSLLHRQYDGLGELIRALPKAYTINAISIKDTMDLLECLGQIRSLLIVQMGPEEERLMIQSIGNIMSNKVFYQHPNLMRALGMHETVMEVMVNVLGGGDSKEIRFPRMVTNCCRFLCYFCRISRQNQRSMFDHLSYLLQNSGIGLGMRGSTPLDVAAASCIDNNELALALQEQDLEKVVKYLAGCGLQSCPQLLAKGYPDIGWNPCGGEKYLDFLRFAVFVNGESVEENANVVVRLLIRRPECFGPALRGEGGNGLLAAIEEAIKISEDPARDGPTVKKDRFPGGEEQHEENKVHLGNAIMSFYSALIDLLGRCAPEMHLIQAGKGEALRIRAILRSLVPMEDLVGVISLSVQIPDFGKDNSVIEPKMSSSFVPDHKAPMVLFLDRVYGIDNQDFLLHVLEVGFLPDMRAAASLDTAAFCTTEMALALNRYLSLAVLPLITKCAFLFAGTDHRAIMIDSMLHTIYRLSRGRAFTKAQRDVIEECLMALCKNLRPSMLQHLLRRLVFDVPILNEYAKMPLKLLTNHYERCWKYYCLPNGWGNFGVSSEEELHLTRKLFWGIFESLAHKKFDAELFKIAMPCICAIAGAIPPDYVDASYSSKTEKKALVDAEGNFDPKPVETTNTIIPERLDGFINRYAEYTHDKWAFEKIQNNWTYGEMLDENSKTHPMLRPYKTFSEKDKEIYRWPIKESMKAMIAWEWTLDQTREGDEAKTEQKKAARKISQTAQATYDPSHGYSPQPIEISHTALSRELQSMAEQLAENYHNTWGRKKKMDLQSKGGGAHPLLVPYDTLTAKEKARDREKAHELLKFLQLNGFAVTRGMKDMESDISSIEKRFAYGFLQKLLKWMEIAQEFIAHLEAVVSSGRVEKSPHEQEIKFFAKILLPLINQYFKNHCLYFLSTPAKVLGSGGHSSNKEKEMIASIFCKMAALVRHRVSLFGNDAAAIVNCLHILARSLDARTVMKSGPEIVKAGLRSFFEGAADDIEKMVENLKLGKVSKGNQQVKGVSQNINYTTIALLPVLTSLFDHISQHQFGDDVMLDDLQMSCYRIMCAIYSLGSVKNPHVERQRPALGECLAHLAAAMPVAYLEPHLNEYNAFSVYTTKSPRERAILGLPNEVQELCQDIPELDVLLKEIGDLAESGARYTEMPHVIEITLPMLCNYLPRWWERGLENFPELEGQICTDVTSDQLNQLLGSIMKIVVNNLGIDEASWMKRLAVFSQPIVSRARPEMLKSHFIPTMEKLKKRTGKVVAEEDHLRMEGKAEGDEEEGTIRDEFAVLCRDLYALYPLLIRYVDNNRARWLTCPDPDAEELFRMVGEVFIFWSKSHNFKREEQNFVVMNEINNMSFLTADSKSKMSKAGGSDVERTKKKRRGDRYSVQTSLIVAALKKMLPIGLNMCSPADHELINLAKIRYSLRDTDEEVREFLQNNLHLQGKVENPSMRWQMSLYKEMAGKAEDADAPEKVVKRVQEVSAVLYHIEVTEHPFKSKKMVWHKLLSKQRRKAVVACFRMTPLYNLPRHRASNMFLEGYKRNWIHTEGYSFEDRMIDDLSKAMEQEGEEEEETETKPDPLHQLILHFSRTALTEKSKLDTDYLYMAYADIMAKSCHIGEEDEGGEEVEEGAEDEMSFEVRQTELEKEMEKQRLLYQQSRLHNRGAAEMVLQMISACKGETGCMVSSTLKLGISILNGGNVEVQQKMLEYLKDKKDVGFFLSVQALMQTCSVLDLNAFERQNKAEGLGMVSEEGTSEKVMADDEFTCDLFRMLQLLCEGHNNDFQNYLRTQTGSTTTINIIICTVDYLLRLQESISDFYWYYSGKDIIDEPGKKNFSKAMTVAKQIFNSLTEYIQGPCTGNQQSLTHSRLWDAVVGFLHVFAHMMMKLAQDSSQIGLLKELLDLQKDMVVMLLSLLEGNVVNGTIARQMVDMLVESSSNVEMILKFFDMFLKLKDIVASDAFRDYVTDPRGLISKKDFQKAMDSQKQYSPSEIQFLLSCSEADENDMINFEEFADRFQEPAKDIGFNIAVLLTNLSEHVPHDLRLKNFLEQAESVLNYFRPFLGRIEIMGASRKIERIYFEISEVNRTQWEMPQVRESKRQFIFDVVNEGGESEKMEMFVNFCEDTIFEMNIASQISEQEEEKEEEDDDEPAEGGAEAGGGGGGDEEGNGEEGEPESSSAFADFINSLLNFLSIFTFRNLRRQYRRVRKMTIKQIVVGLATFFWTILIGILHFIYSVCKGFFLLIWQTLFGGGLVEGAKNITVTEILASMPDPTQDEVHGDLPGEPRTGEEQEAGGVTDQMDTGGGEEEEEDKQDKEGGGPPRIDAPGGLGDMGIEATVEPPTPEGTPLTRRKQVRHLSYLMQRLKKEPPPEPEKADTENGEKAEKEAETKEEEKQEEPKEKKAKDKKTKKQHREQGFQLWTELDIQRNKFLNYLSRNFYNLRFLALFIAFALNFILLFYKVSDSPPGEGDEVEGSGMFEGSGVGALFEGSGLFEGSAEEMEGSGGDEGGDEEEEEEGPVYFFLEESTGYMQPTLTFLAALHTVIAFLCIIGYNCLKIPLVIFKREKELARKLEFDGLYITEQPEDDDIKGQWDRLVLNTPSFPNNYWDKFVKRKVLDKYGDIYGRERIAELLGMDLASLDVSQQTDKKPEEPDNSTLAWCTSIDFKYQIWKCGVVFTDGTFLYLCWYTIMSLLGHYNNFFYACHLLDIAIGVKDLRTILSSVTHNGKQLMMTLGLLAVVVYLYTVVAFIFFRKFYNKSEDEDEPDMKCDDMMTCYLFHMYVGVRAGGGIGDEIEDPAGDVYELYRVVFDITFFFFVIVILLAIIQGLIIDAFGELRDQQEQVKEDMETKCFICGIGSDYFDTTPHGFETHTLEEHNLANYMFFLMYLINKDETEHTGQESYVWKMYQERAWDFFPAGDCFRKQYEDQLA

Row | SMILES | EC50 ([1]; single compound) [nM] | Mammal RPF [2] | Comparison (Ratio) [1] | Log-Probit Slope [1, 5] | Bmax ([1]; (−) inactive) [pmol/mg] | Fish RPF ([1]; (−) inactive) | EC50 [1, 6] [nM] | Mammal EC2X (μM) [3] | Bmax (pmol/mg) ([1]; (−) inactive) | activity toward RyR1 [1] | Mammal EC2X [4] [µM] | activity toward the RyR1 in mammals [4] | receptor activity, % of baseline ([1]; at 20 μM (data not shown)) | Log-Probit Slope ([1]; parameter determined using activating concentrations only) | EC20 ([1]; read-out: Fish Normalized Q20 (μM)) [µM] | Emax ([1]; read-out: Maximum Response (% of Control)) [%]
1 | Brc1ccc(Oc2cc(Br)ccc2Br)c(Br)c1 [PBDE49] | 3480 |  |  |  |  |  |  |  |  |  |  |  |  |  |  | 
2 | Clc1cccc(-c2cccc(Cl)c2Cl)c1 [PCB 20] |  | 0.11 | 0.05 | 2.83 ± 0.10 | 0.34 ± 0.02 | 0.01 | 1800 | 2 ^c μM |  |  |  |  |  |  |  | 
3 | Clc1ccc(-c2ccc(Cl)cc2Cl)cc1 [PCB 28] |  | 0.04 |  |  |  |  | > 20000 | 5 ^c μM | - | inactive |  |  |  |  |  | 
4 | Clc1ccc(Cl)c(-c2cccc(Cl)c2Cl)c1 [PCB 44] |  | 0.28 | 0.29 | 4.20 ± 0.10 | 0.50 ± 0.03 | 0.08 | 4500 | 0.8 ^c μM |  |  |  |  |  |  |  | 
5 | Clc1ccc(Cl)c(-c2cc(Cl)ccc2Cl)c1 [PCB 52] |  | 0.45 | 0.69 | 2.66 ± 0.09 | 0.77 ± 0.05 | 0.31 | 2940 |  |  |  | 0.49 |  |  |  |  | 
6 | Clc1ccc(-c2ccc(Cl)c(Cl)c2)c(Cl)c1 [PCB 66] |  | 0.09 | 0.44 | 2.93 ± 0.00 | 0.42 ± 0.02 | 0.04 | 1160 |  |  |  | 2.38 |  |  |  |  | 
7 | Clc1ccc(-c2ccc(Cl)c(Cl)c2)cc1Cl [PCB 77] |  | 0.04 |  |  |  |  | > 20000 |  | - | negligible impact; also recorded: inactive | 5.00 |  |  |  |  | 
8 | Clc1ccc(Cl)c(-c2c(Cl)ccc(Cl)c2Cl)c1 [PCB 95] |  | 1.00 | 1.00 | 2.15 ± 0.05 | 0.95 ± 0.04 | 1.00 | 1060 |  |  |  | 0.22 |  |  |  |  | 
9 | Clc1ccc(-c2cc(Cl)c(Cl)cc2Cl)c(Cl)c1 [PCB 99] |  | 0.08 | 0.35 | 2.30 ± 0.05 | 0.61 ± 0.03 | 0.03 | 3590 |  |  |  | 2.80 |  |  |  |  | 
10 | Clc1ccc(Cl)c(-c2cc(Cl)c(Cl)cc2Cl)c1 [PCB 101] |  | 0.26 | 1.64 | 1.83 ± 0.04 | 0.64 ± 0.04 | 0.42 | 1980 |  |  |  | 0.86 |  |  |  |  | 
11 | Clc1ccc(-c2c(Cl)ccc(Cl)c2Cl)cc1Cl [PCB 110] |  | 0.19 |  | 2.60 ± 0.01 | 0.48 ± 0.03 |  | 1080 |  |  |  | 1.13 |  |  |  |  | 
12 | Clc1ccc(-c2cc(Cl)c(Cl)c(Cl)c2)cc1Cl [PCB 126] |  |  |  |  |  |  |  |  |  |  |  | inactive |  |  |  | 
13 | Clc1ccc(-c2c(Cl)ccc(Cl)c2Cl)c(Cl)c1Cl [PCB 132] |  | 0.24 | 0.10 |  | 0.46 ± 0.02 | 0.02 | 1320 |  |  |  | 0.91 |  | 88 % of baseline | 1.70 ± 0.04 ^a |  | 
14 | Clc1ccc(Cl)c(-c2c(Cl)ccc(Cl)c2Cl)c1Cl [PCB 136] |  | 0.96 | 0.63 | 3.16 ± 0.14 | 0.96 ± 0.04 | 0.60 | 1300 |  |  |  | 0.23 |  |  |  |  | 
15 | Clc1cc(Cl)c(-c2c(Cl)ccc(Cl)c2Cl)cc1Cl [PCB 149] |  | 0.67 | 1.45 | 3.40 ± 0.08 | 0.76 ± 0.04 | 0.96 | 810 |  |  |  | 0.33 |  |  |  |  | 
16 | Clc1ccc(Cl)c(-c2c(Cl)c(Cl)cc(Cl)c2Cl)c1 [PCB 151] |  | 0.44 | 0.45 | 1.91 ± 0.04 | 0.77 ± 0.04 | 0.20 | 2760 |  |  |  | 0.50 |  |  |  |  | 
17 | Clc1cc(Cl)c(-c2cc(Cl)c(Cl)cc2Cl)cc1Cl [PCB 153] |  | 0.18 | 0.41 | 2.25 ± 0.05 | 0.54 ± 0.02 | 0.07 | 5750 |  |  |  | 1.21 |  |  |  |  | 
18 | Clc1ccc(-c2cc(Cl)c(Cl)c(Cl)c2Cl)c(Cl)c1Cl [PCB 170] |  | 0.30 |  |  |  |  | > 20000 |  | - | inactive | 0.73 |  |  |  |  | 
19 | Clc1cc(Cl)c(-c2cc(Cl)c(Cl)c(Cl)c2Cl)cc1Cl [PCB 180] |  | 0.23 | 0.17 | 1.84 ± 0.06 | 0.40 ± 0.03 |  |  |  |  |  | 0.96 |  |  |  | 11.2 | 132 ± 9.87
20 | Clc1cc(Cl)c(-c2c(Cl)cc(Cl)c(Cl)c2Cl)cc1Cl [PCB 183] |  | 0.40 | 0.16 | 1.58 ± 0.09 | 0.42 ± 0.03 | 0.06 | 1820 |  |  |  | 0.55 |  |  |  |  | 
21 | Clc1cc(Cl)c(-c2c(Cl)c(Cl)cc(Cl)c2Cl)cc1Cl [PCB 187] |  | 0.38 | 0.16 | 3.05 ± 0.07 | 0.45 ± 0.02 | 0.06 | 1300 |  |  |  | 0.58 |  |  |  |  | 
22 | Clc1cc(-c2cc(Cl)c(Cl)c(Cl)c2Cl)c(Cl)c(Cl)c1Cl [PCB 194] |  | 0.44 | 0.09 | 8.94 ± 0.34 | 0.36 ± 0.02 | 0.04 | 1270 | 0.5 ^c μM |  |  |  |  |  |  |  | 
